Reference: patent publication US20060160095A1, “Survivin” (EiRx Therapeutics Limited, priority 2002, published 2006)

Assays:
Survivin mRNA [1] = test: Real-time PCR quantification of survivin mRNA in neutrophils; type: cell-based, human; details: cytokine added in vitro; A549 standard = 100%
Method: Neutrophils are cultured at 1×10^6 per ml in complete culture medium. GM-CSF (50 ng/ml; kind gift of T. Hartung, University of Konstanz, Konstanz, Germany) or G-CSF (25 ng/ml; PeproTech, BioConcept, Allschwil, Switzerland) are added. The duration of GM-CSF or G-CSF stimulation is indicated in each experiment.
Neutrophils (1×10^7) are washed with PBS and the RNA is isolated according to the RNeasy protocol (Qiagen AG, Basel, Switzerland), which includes DNase digestion. RNA is reverse transcribed with the first strand cDNA synthesis kit (Amersham Pharmacia Biotech) by using random hexanucleotides according to the manufacturer's instructions. Real-time monitoring of PCR amplification of survivin cDNA is performed with a 1/100 dilution of neutrophil cDNA as previously described (Olie et al. (2000) Cancer Research 60, 2805-2809). Relative quantification of survivin expression is performed as described (Olie et al. (2000) Cancer Research 60, 2805-2809) utilizing rRNA as an internal standard.
The 20-mer first generation antisense oligonucleotide 4003 targeting the survivin mRNA has been described above. The second generation 2′-O-methoxy-ethoxy (2′-MOE) gapmer version of 4003 (as) and its 3-base mismatch sequence control (ms) are synthesized using an Applied Biosystems 394B automated DNA synthesizer as described (De Mesaeker et al. (1995) Acc. Chem. Res. 28, 366-374). Sequences are as follows: antisense survivin, cscscsasgsCsCsTsTsCsCsAsGsCsTscscststsg; mismatch survivin, cscstsasgsCsCsTsTsCsCsAsGsGsTscscstsasg. Small letters refer to 2′-O-(2-methoxy)-ethyl-modified nucleotides, capital letters to DNA, and “s” refers to phosphorothioate linkages. Cells isolated and cultured as described above are treated with survivin antisense oligonucleotides (as) or survivin mismatch control oligonucleotides (ms) at the indicated concentrations. In the experiments in which GM-CSF (50 ng/ml; kind gift of T. Hartung, University of Konstanz, Konstanz, Germany) or G-CSF (25 ng/ml; PeproTech, BioConcept, Allschwil, Switzerland) are added, the oligonucleotides are given 2 h before addition of cytokines.

Survivin mRNA [2] = test: LifeGrid microarray of Survivin transcripts in neutrophils; type: cell-based, human; details: between 2 and 6 h following addition of GM-CSF
Method: Primary human neutrophils are isolated and purified from peripheral blood of normal healthy individuals using standard techniques. Neutrophils are resuspended in serum containing culture medium together with GM-CSF (50 U) at a concentration of 2×10^6/ml, and cultured for 0 h (control), 2 h, 4 h and 6 h at 37° C. Total RNA is then prepared from both groups using acid phenol/guanidine isothiocyanate extraction (RNAzol B; Biogenesis), or RNeasy RNA preparation kits (Qiagen). Any contaminating genomic DNA is removed by DNase treatment (DNase I, Gibco-BRL). […]
This example describes the use of a STORM Phosphoimager to quantitatively image positive signals across the filter arrays. […]
The captured image file is then analysed using software such as Array Vision (Imaging Research Inc.; See FIG. 5). […] This program contains facilities for spot detection and quantification, and background detection and quantification. […] As the data is imported to the database, a Normalisation factor is calculated and the sDENs values modified accordingly. […] A normalization factor may be derived from Linear Regression calculated by reference to housekeeping genes. Alternatively, the Global Mean is calculated as the average of the sDens values across all of the arrays to be compared and a normalisation factor is then derived by division of the overall spot density with the Global Mean value. […]

Granulocyte macrophage colony-stimulating factor [GM-CSF]
survivin mRNA in normal control neutrophils after cytokine addition (Survivin mRNA [1]): increase in survivin mRNA | Expression of Survivin (microarray fold change) (Survivin mRNA [2]): up-regulated
